Assay results as given in publication PMC5955835 (ACS chemical neuroscience, 2018).
“Also recorded” adds a separate entry of the source. Where a name gives a salt, the structure may show the parent alone.

Tests used:
[1] = test system: VC4 and 5 neurons of C. elegans SC_APP model; experiment: HCS microfluidic neurodegeneration assay in C. elegans SC_APP model; assay type: in vivo; details: for effect on neurodegeneration of VC4 and 5 neurons in SC_APP model: D3 adult animals, liquid culture, doses 0.02, 0.2, 2 and 20 μM, vs vehicle-treated SC_APP (200 μM FUdR, 0.5% DMSO); for concentration of highest efficacy in protecting against neurodegeneration: SC_APP model, D3 animals, four doses 0.02-20 μM
[2] = test system: VC4 and 5 neurons of SC_APP vem-1/PGRMC1 null C. elegans; details: earlier work, SC_APP model; cited from earlier work
[3] = test system: transgenic APP mouse model; details: listed as SAS-0132; cited from earlier work

Compound | effect on neurodegeneration of VC4 and 5 neurons in SC_APP model [1] | concentration of highest efficacy in protecting against neurodegeneration [1] [µM] | PGRMC1 dependence of reduction of neurodegeneration [2] | cognitive performance in transgenic AD mice [3]
C=C(c1ccc(C(=O)O)cc1)c1cc2c(cc1C)C(C)(C)CCC2(C)C [bexarotene] | protected the cholinergic neurons of the SC_APP model | 20 |  | 
OC(CNc1ccccc1)Cn1c2ccc(Br)cc2c2cc(Br)ccc21 (stereo not drawn) [Compound P7C3, P7C3] |  | 0.2 |  | 
Fc1ccc(-n2cc(CCCCN3CCC4(CC3)OCc3ccccc34)c3ccccc32)cc1 [Siramesine] | increase neurodegeneration after a dosing threshold is exceeded despite an initial decrease at lower dosages |  |  | 
COc1ccc(S(=O)(=O)Nc2cc(Cl)cc(Cl)c2OC)cc1N1CCNCC1 [SB399885, SB 399885 hydrochloride] | protected the cholinergic neurons of the SC_APP model | 20 |  | 
CN1CCN(c2ccc3c(c2)[C@H]2C[C@@H]3CCN2C(=O)OCc2ccccc2)CC1 [Compound 1] | reduce neurodegeneration relative to the vehicle treated SC_APP group |  | reduced neurodegeneration through a pathway dependent upon PGRMC1 | improvement in cognitive performance; also recorded: efficacious
